This test has as its target T1, EP4 (Homo sapiens, UniProt P35408).
T1 construct: host or cells: HEK293, stably transfected; also expresses a promiscuous G protein and a clytin variant
Kind of test: EP4 Ca2+-flux assay (functional calcium flux assay, stably transfected HEK293 cells). The format is cell-based. The note with it: HEK293 cells stably transfected with EP4; ligand PGE2 10 nM; luminescence readout. How it is done:
The compounds in the present disclosure were tested in a functional calcium flux assay using stably transfected HEK293 cells. Cells transfected with EP1, EP2, EP3 and EP4 were purchased from Eurofins Discovery Services (St. Charles, Mo.). Each receptor subtype has an additional promiscuous G protein added in order to couple to the calcium signaling pathway. The parental cell line used also expresses a novel variant of clytin, a calcium-activated photo-protein, to enable sensitive luminescent detection.
Cells were plated at 50,000 cells per well in black, clear bottom 96-well plates. The plated cells were allowed to sit at room temperature for 30 min prior to transferring to a humidified, 37° C., 5% CO2 incubator for 18-24 h. Assay buffer (HBSS with 20 mM HEPES) and loading buffer (assay buffer plus 10 μM Coelenterazine) were prepared on the day of the assay. Assays were performed by aspirating media from the assay plate and washing once with assay buffer, then replacing with loading buffer and allowing the cells to incubate for 1.5 h at room temperature. Compounds were prepared in assay buffer at a 3× final concentration in non-binding plates. Compounds were added to the cell plates and incubated for 30 min at room temperature. The prostanoid receptor ligand PGE2 was prepared at a 4× dilution ratio for a final concentration of 10 nM. Plates were run on a Flexstation™ using a 100 ms integration luminescence protocol for a total of 60 sec with ligand addition at 15 sec. Data were obtained from relative light units as measured by area under the curve.
On the technique in general: A change in cytosolic calcium serves as a functional read-out for many receptors and channels.
T1 sequence (P35408 whole entry): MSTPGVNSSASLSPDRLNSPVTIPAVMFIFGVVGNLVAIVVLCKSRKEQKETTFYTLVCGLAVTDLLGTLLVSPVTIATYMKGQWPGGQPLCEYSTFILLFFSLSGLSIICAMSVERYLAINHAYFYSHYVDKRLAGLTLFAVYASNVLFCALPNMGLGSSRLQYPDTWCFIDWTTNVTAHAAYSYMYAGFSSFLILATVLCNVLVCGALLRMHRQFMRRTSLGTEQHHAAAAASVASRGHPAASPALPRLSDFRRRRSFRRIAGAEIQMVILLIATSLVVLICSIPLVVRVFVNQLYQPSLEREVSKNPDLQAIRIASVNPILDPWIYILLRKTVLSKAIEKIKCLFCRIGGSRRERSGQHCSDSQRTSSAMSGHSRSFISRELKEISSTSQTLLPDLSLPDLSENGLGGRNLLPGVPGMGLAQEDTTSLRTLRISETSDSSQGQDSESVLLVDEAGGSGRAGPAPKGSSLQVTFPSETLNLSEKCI
As usually defined, the IC50 is the midpoint of a concentration-inhibition curve. In the case of `O=C(NC1CC2(C1)CC(C(=O)O)C2)c1ccnc2ccn(Cc3ccc(C(F)(F)F)cc3)c12` (racemic) [Example 9, rac-6-(1-(4-(trifluoromethyl)benzyl)-1H-pyrrolo[3,2-b]pyridine-7-carboxamido) spiro[3.3]heptane-2-carboxylic Acid], the IC50 was determined as 6 nM.
Consider `O=C(NC1CC2(C1)CC(C(=O)O)C2)c1nccc2ccn(Cc3ccc(C(F)(F)F)cc3)c12` (racemic) [Example 11, rac-6-(1-(4-(trifluoromethyl)benzyl)-1H-pyrrolo[2,3-c]pyridine-7-carboxamido)spiro[3.3]heptane-2-carboxylic Acid], for which the IC50 was determined as 24 nM.
On to `O=C(NC1CC2(C1)CC(C(=O)O)C2)c1cccc2cnn(Cc3ccc(C(F)(F)F)cc3)c12` (racemic) [Example 12, rac-6-(1-(4-(trifluoromethyl)benzyl)-1H-indazole-7-carboxamido)spiro[3.3]heptane-2-carboxylic Acid], for which the IC50 stood at 2.7 nM.
For `O=C(NC1CC2(C1)CC(C(=O)O)C2)c1cccc2ncn(Cc3ccc(C(F)(F)F)cc3)c12` (racemic) [Example 13, rac-6-(1-(4-(trifluoromethyl)benzyl)-1H-benzo[d]imidazole-7-carboxamido) spiro[3.3]heptane-2-carboxylic Acid], the IC50 worked out at 32 nM.
Turning to `O=C(NC1CC2(C1)CC(C(=O)O)C2)c1cc(F)cc2ccn(Cc3ccc(C(F)(F)F)cc3)c12` (racemic) [Example 21, rac-6-(5-fluoro-1-(4-(trifluoromethyl)benzyl)-1H-indole-7-carboxamido)spiro heptane-2-carboxylic Acid], the IC50 was 0.31 nM.
Regarding `O=C(NC1CC2(C1)CC(C(=O)O)C2)c1c(F)ccc2ccn(Cc3ccc(C(F)(F)F)cc3)c12` (racemic) [Example 23, rac-6-(6-fluoro-1-(4-(trifluoromethyl)benzyl)-1H-indole-7-carboxamido)spiro heptane-2-carboxylic Acid], the IC50 was 0.3 nM.
As for `N#Cc1ccc(Cn2ccc3cccc(C(=O)NC4CC5(C4)CC(C(=O)O)C5)c32)cc1` (racemic) [Example 24, rac-6-(1-(4-cyanobenzyl)-1H-indole-7-carboxamido)spiro[3.3]heptane-2-carboxylic Acid], the IC50 came to 10 nM.
For `O=C(NC1CC2(C1)CC(C(=O)O)C2)c1cccc2ccn(Cc3ccc(C(F)F)cc3)c12` (racemic) [Example 25, rac-6-(1-(4-(difluoromethyl)benzyl)-1H-indole-7-carboxamido)spiro[3.3] heptane-2-carboxylic Acid], the IC50 is 0.4 nM.
On to `O=C(NC1CC2(C1)CC(C(=O)O)C2)c1cccc2ccn(Cc3ccc(S(F)(F)(F)(F)F)cc3)c12` (racemic) [Example 30, rac-6-(1-((4-(pentafluorothiol)phenyl)methyl)-1H-indole-7-carboxamido)spiro heptane-2-carboxylic Acid], for which the half-inhibitory concentration (IC50) was 0.2 nM.
The figure for `O=C(NC1CC2(C1)CC(C(=O)O)C2)c1ccc(F)c2ccn(Cc3ccc(C(F)F)cc3)c12` (racemic) [Example 31, rac-6-(1-(4-(difluoromethyl)benzyl)-4-fluoro-1H-indole-7-carboxamido)spiro heptane-2-carboxylic Acid] is 0.03 nM.
The figure for `N#Cc1ccc(Cn2ccc3cccc(C(=O)NC45CC(CC(=O)O)(C4)C5)c32)cc1` [Example 1, 2-(3-(1-(4-cyanobenzyl)-1H-indole-7-carboxamido)bicyclo[1.1.1]pentan-1-yl) acetic Acid] is 13 nM; for `O=C(O)CC12CC(NC(=O)c3cccc4ccn(Cc5ccc(C(F)(F)F)cc5)c34)(C1)C2` [Example 2, 2-(3-(1-(4-(trifluoromethyl)benzyl)-1H-indole-7-carboxamido)bicyclo[1.1.1]pentan-1-yl)acetic Acid] it is 1.5 nM; for `O=C(O)CC12CC(NC(=O)c3ccnc4ccn(Cc5ccc(C(F)(F)F)cc5)c34)(C1)C2` [Example 3, 2-(3-(1-(4-(trifluoromethyl)benzyl)-1H-pyrrolo[3,2-b]pyridine-7-carboxamido)bicyclo[1.1.11]pentan-1-yl)acetic Acid] it is 160 nM.
`O=C(O)CC12CC(NC(=O)c3nccc4ccn(Cc5ccc(C(F)(F)F)cc5)c34)(C1)C2` [Example 5, 2-(3-(1-(4-(trifluoromethyl)benzyl)-1H-pyrrolo[2,3-c]pyridine-7-carboxamido)bicyclo[1.1.1]pentan-1-yl)acetic Acid]: the 50% inhibitory concentration (IC50) came to 930 nM.
On to `O=C(O)CC12CC(NC(=O)c3cccc4cnn(Cc5ccc(C(F)(F)F)cc5)c34)(C1)C2` [Example 6, 2-(3-(1-(4-(trifluoromethyl)benzyl)-1H-indazole-7-carboxamido)bicyclo[1.1.1]pentan-1-yl)acetic Acid], for which the IC50 was 19 nM.
For the molecule `[2H]C([2H])(c1ccc(C(F)(F)F)cc1)n1ccc2cccc(C(=O)NC34CC(CC(=O)O)(C3)C4)c21` [Example 7, 2-(3-(1-((4-(trifluoromethyl)phenyl)methyl-d2)-1H-indole-7-carboxamido)bicyclo[1.1.1]pentan-1-yl)acetic Acid], the IC50 came to 2 nM.
As to `CC1(NC(=O)c2cccc3ccn(Cc4ccc(C(F)(F)F)cc4)c23)CC(CCC(=O)O)C1` (stereo not drawn) [Example 15, cis-3-(3-methyl-3-(1-(4-(trifluoromethyl)benzyl)-1H-indole-7-carboxamido)cyclobutyl)propanoic Acid], the half-inhibitory concentration (IC50) came out at 400 nM.
In the case of `O=C(CC12CC(NC(=O)c3cccc4ccn(Cc5ccc(C(F)(F)F)cc5)c34)(C1)C2)NS(=O)(=O)c1ccccc1` [Example 16, N-(3-(2-oxo-2-(phenylsulfonamido)ethyl)bicyclo[1.1.1]pentan-1-yl)-1-(4-(trifluoromethyl)benzyl)-1H-indole-7-carboxamide], the concentration for half-maximal inhibition (IC50) turned out to be 140 nM.
For `O=C(NCC12CC(NC(=O)c3cccc4ccn(Cc5ccc(C(F)(F)F)cc5)c34)(C1)C2)NS(=O)(=O)c1ccccc1` [Example 17, N-(3-((3-(phenylsulfonyl)ureido)methyl)bicyclo[1.1.1]pentan-1-yl)-1-(4-(trifluoromethyl)benzyl)-1H-indole-7-carboxamide], the IC50 was determined as 130 nM.
With `O=C(NC12CC(Cc3nnn[nH]3)(C1)C2)c1cccc2ccn(Cc3ccc(C(F)(F)F)cc3)c12` [Example 18, N-(3-((1H-tetrazol-5-yl)methyl)bicyclo[1.1.1]pentan-1-yl)-1-(4-(trifluoromethyl)benzyl)-1H-indole-7-carboxamide], the IC50 was found to be 1.5 nM.
Consider `O=C(O)CC12CCC(NC(=O)c3cccc4ccn(Cc5ccc(C(F)(F)F)cc5)c34)(C1)C2` [Example 19, 2-(4-(1-(4-(trifluoromethyl)benzyl)-1H-indole-7-carboxamido)bicyclo[2.1.1]hexan-1-yl)acetic Acid], for which the half-maximal inhibitory concentration (IC50) turned out to be 9.1 nM.
The figure for `O=C(O)CC12CCC(NC(=O)c3cccc4ccn(Cc5ccc(C(F)F)cc5)c34)(C1)C2` [Example 26, 2-(4-(1-(4-(difluoromethyl)benzyl)-1H-indole-7-carboxamido)bicyclo[2.1.1]hexan-1-yl)acetic Acid] is 3.8 nM; for `O=C(O)CC12CCC(NC(=O)c3ccc(F)c4ccn(Cc5ccc(C(F)(F)F)cc5)c34)(C1)C2` [Example 28, 2-(4-(4-fluoro-1-(4-(trifluoromethyl)benzyl)-1H-indole-7-carboxamido)bicyclohexan-1-yl)acetic Acid] it is 0.6 nM.
Turning to `O=C(O)CC12CCC(NC(=O)c3cccc4ccn(Cc5ccc(S(F)(F)(F)(F)F)cc5)c34)(C1)C2` [Example 29, 2-(4-(1-((4-(pentafluorothiol)phenyl)methyl)-1H-indole-7-carboxamido)bicyclohexan-1-yl)acetic Acid], the IC50 was determined as 1.2 nM.
Turning to `O=C(O)C[C@]12C[C@](NC(=O)c3ccc(F)c4ccn(Cc5ccc(C(F)F)cc5)c34)(C1)C2` [Example 32, 2-(3-(1-(4-(difluoromethyl)benzyl)-4-fluoro-1H-indole-7-carboxamido)bicyclopentan-1-yl)acetic Acid], the IC50 worked out at 0.1 nM.
The figure for `O=C(O)C[C@]12C[C@](NC(=O)c3cc(F)cc4ccn(Cc5ccc(C(F)(F)F)cc5)c34)(C1)C2` [Example 33, 2-(3-(5-fluoro-1-(4-(trifluoromethyl)benzyl)-1H-indole-7-carboxamido)bicyclopentan-1-yl)acetic Acid] is 0.1 nM; for `O=C(O)C[C@]12C[C@](NC(=O)c3cccc4ccn(Cc5ccc(-c6ccccc6)cc5)c34)(C1)C2` [Example 34, 2-(3-(1-([1,1′-biphenyl]-4-ylmethyl)-1H-indole-7-carboxamido)bicyclo[1.1.1]pentan-1-yl)acetic Acid] it is 0.22 nM; for `O=C(O)C[C@]12C[C@](NC(=O)c3ccc(F)c4ccn(Cc5ccc(-c6ccccc6)cc5)c34)(C1)C2` [Example 35, 2-(3-(1-([1,1′-biphenyl]-4-ylmethyl)-4-fluoro-1H-indole-7-carboxamido)bicyclo[1.1.11]pentan-1-yl)acetic Acid] it is 0.28 nM.
The figure for `O=C(O)C[C@]12C[C@](NC(=O)c3cccc4cnn(Cc5ccc(-c6ccccc6)cc5)c34)(C1)C2` [Example 36, 2-(3-(1-([1,1′-biphenyl]-4-ylmethyl)-1H-indazole-7-carboxamido)bicyclo[1.1.1]pentan-1-yl)acetic Acid] is 0.32 nM.
